“And” between values parts separate entries of the source, which are not always exact repeats. Equal entries are not always repeated.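 A five-concentration, 48-hour dose response in 96-well plates underlies each endpoint, interpolated linearly between surrounding concentrations. GI50 marks 50% less growth. Definition used: TGI = concentration required for complete inhibition of growth.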
Each compound was assayed on OVCAR-8 ovarian (assay: inhibition of tumour cell growth, NCI panel, 48 h).

SMILES	TGI [µM]
COc1cc(C2c3cc4c(cc3[C@@H](Nc3ccccc3)C3CO[C@@H](OC)[C@H]23)OCO4)cc(OC)c1O (stereo not given in full)	> 25
CCOC(=O)c1c(SC(=O)/C=C/c2ccccc2)n(-c2ccccc2)c(=S)n(-c2ccccc2)c1=O	> 100
CC(=O)OC[C@]12CC[C@H]3[C@@H](C[C@H]4O[C@]45CC=CC(=O)[C@]35C)[C@]1(O)CC[C@@]2(O)[C@@](C)(O)C1CC(C)=C(C)C(=O)O1 (stereo not given in full)	> 32.1

These compounds were tested on PC-3 prostate (assay: inhibition of tumour cell growth, NCI panel, 48 h).

SMILES	GI50 [µM]	TGI [µM]
C=C1C(=O)O[C@H]2[C@H]1CC/C(COC(=O)/C=C\C(=O)NCc1ccc(Cn3c(=O)sn(-c4ccc(C#N)cc4)c3=O)cc1)=C\CC[C@@]1(C)O[C@@H]21	0.611	1.44
COc1cc2c3c(n(CCCCl)c(=O)c2cc1OC)-c1ccccc1C3=O	> 100	> 100
COc1cc(C2c3cc4c(cc3[C@@H](Nc3ccccc3)C3CO[C@@H](OC)[C@H]23)OCO4)cc(OC)c1O (stereo not given in full)		> 25
CCOC(=O)c1c(SC(=O)/C=C/c2ccccc2)n(-c2ccccc2)c(=S)n(-c2ccccc2)c1=O		> 100
CC(=O)OC[C@]12CC[C@H]3[C@@H](C[C@H]4O[C@]45CC=CC(=O)[C@]35C)[C@]1(O)CC[C@@]2(O)[C@@](C)(O)C1CC(C)=C(C)C(=O)O1 (stereo not given in full)		> 26.1

Each compound was assayed on RPMI-8226 leukemia (assay: inhibition of tumour cell growth, NCI panel, 48 h).

SMILES	GI50	TGI [µM]
C=C1C(=O)O[C@H]2[C@H]1CC/C(COC(=O)/C=C\C(=O)NCc1ccc(Cn3c(=O)sn(-c4ccc(C#N)cc4)c3=O)cc1)=C\CC[C@@]1(C)O[C@@H]21	0.443 µM	2.59
COc1cc2c3c(n(CCCCl)c(=O)c2cc1OC)-c1ccccc1C3=O	25.4 µM	> 100
COc1cc(C2c3cc4c(cc3[C@@H](Nc3ccccc3)C3CO[C@@H](OC)[C@H]23)OCO4)cc(OC)c1O (stereo not given in full)		10.2
CC(=O)OC[C@]12CC[C@H]3[C@@H](C[C@H]4O[C@]45CC=CC(=O)[C@]35C)[C@]1(O)CC[C@@]2(O)[C@@](C)(O)C1CC(C)=C(C)C(=O)O1 (stereo not given in full)	> 100 µM	> 100
CC(=O)OCC1OC(n2c(-c3ccccc3)cc(-c3ccccc3)c(C#N)c2=O)C(OC(C)=O)C(OC(C)=O)C1OC(C)=O (stereo not given)	16 µM and 39.7 µM	> 100

Each compound was assayed on RXF 393 renal (assay: inhibition of tumour cell growth, NCI panel, 48 h).

SMILES	GI50 [µM]	TGI [µM]
C=C1C(=O)O[C@H]2[C@H]1CC/C(COC(=O)/C=C\C(=O)NCc1ccc(Cn3c(=O)sn(-c4ccc(C#N)cc4)c3=O)cc1)=C\CC[C@@]1(C)O[C@@H]21	0.576	1.22
CCOC(=O)c1c(SC(=O)/C=C/c2ccccc2)n(-c2ccccc2)c(=S)n(-c2ccccc2)c1=O		> 100
CC(=O)OCC1OC(n2c(-c3ccccc3)cc(-c3ccccc3)c(C#N)c2=O)C(OC(C)=O)C(OC(C)=O)C1OC(C)=O (stereo not given)		> 100

These compounds were tested on SF-268 CNS (assay: inhibition of tumour cell growth, NCI panel, 48 h).

SMILES	GI50 [µM]	TGI [µM]
C=C1C(=O)O[C@H]2[C@H]1CC/C(COC(=O)/C=C\C(=O)NCc1ccc(Cn3c(=O)sn(-c4ccc(C#N)cc4)c3=O)cc1)=C\CC[C@@]1(C)O[C@@H]21	0.724	1.41
COc1cc2c3c(n(CCCCl)c(=O)c2cc1OC)-c1ccccc1C3=O	> 100	> 100
COc1cc(C2c3cc4c(cc3[C@@H](Nc3ccccc3)C3CO[C@@H](OC)[C@H]23)OCO4)cc(OC)c1O (stereo not given in full)		> 25
CCOC(=O)c1c(SC(=O)/C=C/c2ccccc2)n(-c2ccccc2)c(=S)n(-c2ccccc2)c1=O		> 100
COC(=O)c1ccc2c(c1)n(Cc1ccc3ccccc3c1)c[n+]2Cc1ccc2ccccc2c1	1.5	3.02

These compounds were tested on SF-295 CNS (assay: inhibition of tumour cell growth, NCI panel, 48 h).

SMILES	GI50 [µM]	TGI [µM]
C=C1C(=O)O[C@H]2[C@H]1CC/C(COC(=O)/C=C\C(=O)NCc1ccc(Cn3c(=O)sn(-c4ccc(C#N)cc4)c3=O)cc1)=C\CC[C@@]1(C)O[C@@H]21	3.54	9.7
COc1cc2c3c(n(CCCCl)c(=O)c2cc1OC)-c1ccccc1C3=O	0.845	13.3
COc1cc(C2c3cc4c(cc3[C@@H](Nc3ccccc3)C3CO[C@@H](OC)[C@H]23)OCO4)cc(OC)c1O (stereo not given in full)		12.4
CCOC(=O)c1c(SC(=O)/C=C/c2ccccc2)n(-c2ccccc2)c(=S)n(-c2ccccc2)c1=O		> 100
CC(=O)OC[C@]12CC[C@H]3[C@@H](C[C@H]4O[C@]45CC=CC(=O)[C@]35C)[C@]1(O)CC[C@@]2(O)[C@@](C)(O)C1CC(C)=C(C)C(=O)O1 (stereo not given in full)		> 32.5
COC(=O)c1ccc2c(c1)n(Cc1ccc3ccccc3c1)c[n+]2Cc1ccc2ccccc2c1	1.86	5.56

Each compound was assayed on SF-539 CNS (assay: inhibition of tumour cell growth, NCI panel, 48 h).

SMILES	GI50 [µM]	TGI [µM]
C=C1C(=O)O[C@H]2[C@H]1CC/C(COC(=O)/C=C\C(=O)NCc1ccc(Cn3c(=O)sn(-c4ccc(C#N)cc4)c3=O)cc1)=C\CC[C@@]1(C)O[C@@H]21	0.753	1.43
COc1cc2c3c(n(CCCCl)c(=O)c2cc1OC)-c1ccccc1C3=O	14.1	> 100
COc1cc(C2c3cc4c(cc3[C@@H](Nc3ccccc3)C3CO[C@@H](OC)[C@H]23)OCO4)cc(OC)c1O (stereo not given in full)		12.1
